Measurements published in PubChem BioAssay AID1159586 (Gregory J. Crowther, 2016).
pIC50: −log10 of the molar value.

Target: Plasmodium falciparum protein kinase 6 (PK6, PF3D7_1337100) (UniProt Q8IDW1)
Assay: PfPK6 kinase inhibitors, biochemical, TCAMS library (AID 1159586)
Conditions: recombinant PfPK6, Kinase-Glo ATP depletion luminescence

Chain of Plasmodium falciparum protein kinase 6 (PK6, PF3D7_1337100) (Q8IDW1 1-305): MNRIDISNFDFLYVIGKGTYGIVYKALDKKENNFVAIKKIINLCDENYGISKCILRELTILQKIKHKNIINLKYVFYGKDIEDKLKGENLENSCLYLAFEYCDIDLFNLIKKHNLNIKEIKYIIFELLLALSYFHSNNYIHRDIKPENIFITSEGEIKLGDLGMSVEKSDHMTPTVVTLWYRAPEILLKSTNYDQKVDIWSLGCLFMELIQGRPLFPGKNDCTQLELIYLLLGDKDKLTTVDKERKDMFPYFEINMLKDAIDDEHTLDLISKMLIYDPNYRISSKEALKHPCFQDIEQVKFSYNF

Row | SMILES | pIC50
1 | COc1ccc(Nc2ncc(Cl)c(Nc3cccnc3C(N)=O)n2)cc1N1CCN(C)CC1 | 7.07
2 | CCN(CC)CCOc1ccc(Nc2ncc3cc(-c4c(Cl)cccc4Cl)c(=O)n(C)c3n2)cc1 | 6.46
3 | CCN(CC)CCNc1nccc(N(C)c2ccc(NC(=O)Nc3cc(C(F)(F)F)ccc3F)cc2)n1 | 6.04
4 | CN(c1ccc(NC(=O)Nc2cc(C(F)(F)F)ccc2F)cc1)c1ccnc(NCCN2CCOCC2)n1 | 6.28
5 | Cn1c(=O)c(-c2c(Cl)cccc2Cl)cc2cnc(Nc3ccc(N4CCOCC4)cc3)nc21 | 6.84
6 | NCCNS(=O)(=O)c1ccc(-c2ccnc3[nH]c(-c4ccncc4)cc23)cc1 | 6.68
7 | CN(c1ccc(NC(=O)Nc2cc(C(C)(C)C)on2)cc1)c1ccnc(NCCN2CCOCC2)n1 | 6.43
8 | COc1cccc(-n2ncc3c(N/N=C/c4ccc(CN(C)CCN(C)C)cc4)ncnc32)c1 | 7.24
9 | Cc1cc(Nc2nc(Nc3cccc(Cl)c3)nc3ccccc23)n[nH]1 | 6.82
10 | CN1CCC(NC(=O)c2cccc(Nc3cc(Nc4cccc(Br)c4)ncn3)c2)CC1 | 6.22
11 | Cn1cc(-c2ccnc3[nH]c(-c4cccc(CNC5CCC(O)CC5)c4)cc23)cn1 (centres undefined) | 6.75
12 | NC(=O)c1ccccc1Nc1nc(Nc2cccc(N3CCN(CCO)CC3)c2)ncc1Cl | 7.10
13 | Cc1cc(Nc2ncc(Cl)c(Nc3ccccc3C(N)=O)n2)n[nH]1 | 6.89
14 | Cc1ccc(Nc2ccnc(Nc3ccc4c(c3)CS(=O)(=O)C4)n2)cc1O | 6.91
15 | CNC(=O)c1ccccc1Nc1nc(Nc2ccc(N3CCN(C)CC3)nc2)ncc1C | 6.84
16 | COc1ccc(Nc2ncc(C#N)c(Nc3ccccc3C(N)=O)n2)cc1N1CCN(C)CC1 | 7.21
17 | Nc1ncc(-c2cccc(F)c2)cc1-c1nc2ccc(F)cc2[nH]1 | 6.69
18 | Cn1cnc2c(Nc3ccncc3)nc(-c3ccc4c(c3)OCO4)nc21 | 6.30

Row | SMILES | pIC50
19 | CNC(=O)c1ccccc1Nc1nc(Nc2ccc(CCN3CCN(C)CC3)cc2)ncc1Cl | 7.15
20 | CCN(CC)CCNC(=O)c1ccc(Nc2ncc([N+](=O)[O-])c(Nc3ccccc3OC)n2)cc1 | 6.96
21 | COc1ccc(Nc2ncc(OC)c(Nc3ccccc3C(N)=O)n2)cc1N1CCN(C)CC1 | 6.57
22 | CN(C)Cc1cccc(-c2cc3c(-c4cnn(C)c4)c(Cl)cnc3[nH]2)c1 | 6.89
23 | CC(=O)Nc1nc(C)c(-c2csc(Nc3ccc(Cl)cc3)n2)s1 | 7.02
24 | Nc1ncnc2occ(-c3ccc(NC(=O)Nc4cc(C(F)(F)F)ccc4F)cc3)c12 | 6.47
25 | NCCNC(=O)c1ccc(-c2cnc3[nH]cc(-c4ccc(C(N)=O)cc4)c3c2)cc1 | 6.03
26 | O=c1[nH]ccc2nc(N[C@@H]3CCCNC3)nc(Nc3ccc(S(=O)(=O)N4CCOCC4)cc3)c12 | 6.94
27 | CCN(CC)CCCNc1nccc(N(C)c2ccc(NC(=O)Nc3cc(C(F)(F)F)ccc3F)cc2)n1 | 6.15
28 | CNC(=O)c1ccccc1Nc1nc(Nc2ccc(N3CCOCC3)cc2)ncc1Cl | 7.38
29 | CN1CCN(c2ccc(Nc3nccc(-c4cnn5ncccc45)n3)cc2Cl)CC1 | 6.75
30 | COc1c(CN2CCCC2)cccc1-c1cc2c(-c3ccc(C(=O)O)c(C(C)C)c3)ccnc2[nH]1 | 6.27
31 | COc1c(CN2CCOCC2)cccc1-c1cc2c(-c3ccc(C(=O)O)c(C(C)C)c3)ccnc2[nH]1 | 6.16
32 | C#CCNC(=O)c1ccc(-c2ccnc(Nc3cccc(CCCN4CCOCC4)c3)n2)s1 | 6.74
33 | CN(C)CC(O)COc1ccc(Nc2ncc([N+](=O)[O-])c(Nc3ccccc3O)n2)cc1 (centres undefined) | 7.17
34 | CN1CCN(c2ccc(Nc3ncc(C#N)c(Nc4ccccc4C(N)=O)n3)cc2)CC1 | 7.05
35 | Cc1cc(Nc2ncc(C#N)c(Nc3ccccc3C(N)=O)n2)ccc1N1CCN(C)CC1 | 7.27
36 | C(=N\Nc1nccc2sc(-c3ccccc3)cc12)/c1cccnc1 | 6.56

Now from value to compound:

Row | pIC50 | SMILES
37 | 6.08 | Cc1ccc(S(=O)(=O)Nc2ccc(Nc3nccc(Nc4cccc5[nH]ncc45)n3)cc2)cc1
38 | 6.43 | CC(c1cccc(Nc2nccc(-c3c(-c4cccc(NC(=O)c5c(F)cccc5F)c4)nn4ncccc34)n2)c1)S(C)(=O)=O (centres undefined)
39 | 6.41 | CS(=O)(=O)Cc1ccc(Nc2nccc(N3CCCc4cc(NC(=O)Nc5cccc(C(F)(F)F)c5)ccc43)n2)cc1
40 | 6.58 | O=S1(=O)NCc2ccc(Nc3nccc(Nc4ccc5c(cnn5Cc5ccccc5)c4)n3)cc21
41 | 6.38 | N=C(N)c1ccc(Nc2nccc(Nc3nc(-c4ccccc4)cs3)n2)cc1
42 | 6.24 | O=C(Nc1cccc(-c2nn3ccccc3c2-c2ccnc(Nc3ccc(NCCCN4CCOCC4)c(F)c3)n2)c1)c1c(F)cccc1F
43 | 6.61 | NS(=O)(=O)c1cccc(Nc2nccc(-c3cnn4ncccc34)n2)c1
44 | 6.84 | CC(=O)Nc1cccc(Nc2nccc(-c3c(-c4cccc(NC(=O)c5c(F)cccc5F)c4)nn4ncccc34)n2)c1
45 | 6.56 | CS(=O)(=O)Cc1ccc(Nc2nccc(-c3c(-c4cccc(NC(=O)c5c(F)cccc5F)c4)nn4ccccc34)n2)cc1
46 | 6.86 | CC(=O)c1ccc(NC(=O)Nc2ccc(N(C)c3ccnc(Nc4cccc(CS(C)(=O)=O)c4)n3)cc2)cc1
47 | 6.40 | CN(c1ccc(NC(=O)Nc2cccc(Cl)c2)cc1)c1ccnc(N)n1
48 | 6.07 | Cn1nc(-c2ccc(NC(=O)Nc3ccc4ccccc4c3)c(F)c2)c2cnc(NCCN3CCOCC3)nc21
49 | 6.85 | NS(=O)(=O)c1ccc(Nc2nccc(-c3c(-c4cccc(NC(=O)c5c(F)cccc5F)c4)nn4ccccc34)n2)cc1
50 | 7.13 | CS(=O)(=O)Cc1cccc(Nc2ncc(Cl)c(Nc3cccnc3C(N)=O)n2)c1
51 | 6.64 | Cc1ccc(Nc2nc3cc(Nc4ccnc(Nc5cccc(CS(C)(=O)=O)c5)n4)ccc3o2)cc1
52 | 6.16 | CS(=O)(=O)Cc1ccc(Nc2ncc(Cl)c(Nc3cccnc3C(N)=O)n2)cc1
53 | 6.52 | CCN(CC)CCCOc1ccc(Nc2nccc(-c3c(-c4cccc(NC(=O)c5c(F)cccc5F)c4)nn4ccccc34)n2)cc1F
54 | 6.35 | COc1ccc(Nc2ncc3c(-c4cccc(NC(=O)Cc5ccc(O)cc5)c4)c[nH]c3n2)cc1OC
55 | 6.89 | CC(=O)Nc1ccc(Nc2ncc([N+](=O)[O-])c(Nc3ccccc3C(N)=O)n2)cc1
56 | 6.98 | CS(=O)(=O)Cc1ccc(Nc2nccc(-c3c(-c4cccc(C(=O)Nc5c(F)cccc5F)c4)nn4ccccc34)n2)cc1
57 | 6.57 | CCNC(=O)Nc1ccc(N(C)c2ccnc(Nc3ccc(CS(C)(=O)=O)cc3)n2)cc1
58 | 6.86 | CS(=O)(=O)Cc1ccc(Nc2nccc(-c3c(-c4cccc(NC(=O)C5CCCCC5)c4)nn4ncccc34)n2)cc1
59 | 6.70 | N#Cc1cnc(Nc2ccc(Oc3ccccc3)cc2)nc1Nc1cccc(S(N)(=O)=O)c1
60 | 6.33 | CN(c1ccc2c(c1)nc(NCc1ccccc1)n2C)c1ccnc(Nc2ccc(CS(C)(=O)=O)cc2)n1
61 | 6.79 | N=C(N)c1ccc(Nc2nc(Nc3ccc(-c4ccccc4)cc3)ncc2[N+](=O)[O-])cc1
62 | 6.88 | CNC(=O)c1ccccc1Nc1nc(Nc2cccc(CS(C)(=O)=O)c2)ncc1C
63 | 6.07 | CN(c1ccc2c(c1)nc(NCc1ccc(F)cc1)n2C)c1ccnc(Nc2ccc(CS(C)(=O)=O)cc2)n1
64 | 6.78 | O=C(Cc1ccc(Nc2nccc(Nc3cccc4[nH]ncc34)n2)cc1)Nc1ccc(C(F)(F)F)cc1
